Test results: patent US10239878B2, “Macrocyclic ligands with pendant chelating moieties and complexes thereof” (LUMIPHORE, INC., priority 2016, dated 2019)

Assay: Stability of 43⋅Eu luminescence in the presence of ca. 25 mM competitors
Type: physicochemical
Description: In order for a luminescent metal complex to be useful in a practical sense, it must be stable in the presence of common competitive metal cations and chelating ligands. We measured the stability of 43 ⋅Eu (ca. 7 μM) dissolved in TBS buffer, with various competitors present at ca. 25 mM concentration. Specifically, manganese dichloride tetrahydrate (14.8 mg, 74.8 μmol) was dissolved into TBS buffer (100 μL), and added to an aliquot of 43⋅Eu (3 mL), making the final concentration of Mn(II) 24.1 mM. Magnesium chloride hexahydrate (33.6 mg, 165 μmol) was dissolved into TBS buffer (200 μL), and 100 μL was added to an aliquot of 43⋅Eu (3 mL), making the final concentration of Mg(II) 26.7 mM. Calcium chloride hexahydrate (55.8 mg, 255 μmol) was dissolved into TBS buffer (300 μL), and 100 μL was added to an aliquot of 43 ⋅Eu (3 mL), making the final concentration of Ca(II) 27.4 mM. For DTPA, first KOH (95.9 mg, 1.71 mmol) was dissolved into 1 mL of water, and 389 μL of this basic solution (5 equivalents) was used to dissolve DTPA (52.3 mg, 133 μmol). Then, 219 μL of this DTPA solution was added to an aliquot of 43⋅Eu (3 mL), making the final concentration of DTPA 23.4 mM. EDTA (0.5 M, pH=8, 150 μL) was added to an aliquot of 43 ⋅Eu (3 mL), making the final concentration of EDTA 23.8 mM. For phosphate competition, the methanolic stock of 43⋅Eu was diluted to ca. 7 μM in 25 mM phosphate buffer (pH=8).

change in sample brightness (25 mM phosphate buffer pH=8, 24 hours): no detectable change | change in sample brightness (Ca(II) 27.4 mM, TBS buffer, 24 hours): no detectable change | brightness remaining (of the original brightness) (DTPA 23.4 mM, TBS buffer, after 24 hours): 83% | brightness remaining (EDTA 23.8 mM, TBS buffer, 24 hours): 96% | change in sample brightness (Mg(II) 26.7 mM, TBS buffer, 24 hours): no detectable change | brightness remaining (Mn(II) 24.1 mM, TBS buffer, 24 hours): 89%
SMILES: NCCOCCNC(=O)C1CCCN(C(=O)c2cccc(=O)n2[O-])CCCNC(=O)c2ccc(n([O-])c2=O)C(=O)NC2COCC2NC(=O)c2ccc(c(=O)n2[O-])C(=O)NCCCN1C(=O)c1cccc(=O)n1[O-].[Eu+3] (mixture of isomers) [43⋅Eu]
